# Tested on: K24384-001-R-PDC complex spheroid growth
# Experiment: Anticancer human tumor K24384-001-R-PDC patient-derived pancreatic adenocarcinoma cell line growth inhibition [AhR]
# Details: for IC50: curve of first compound; for viability, T/C: stronger effect = lower value
# Source text: Multicellular complex tumor spheroid response to aryl hydrocarbon receptor antagonists in combination with a variety of drugs and investigational agents in selected tumor cell lines
# The current study was undertaken to assess response to aryl hydrocarbon receptor antagonists in combination with standard-of-care drugs and investigational agents in solid tumor complex spheroid models. Complex spheroids include a stromal component modeled by human endothelial cells (HUVEC) and fibroblasts modeled by human mesenchymal stem cells (MSCs). The concentration ranges selected for each drug and investigational agent were based upon clinically achievable concentrations if the clinical Cmax of the agent was known.
# Compounds. The drugs and investigational agents: BAY 2416964 (NSC825713), GNF351 (NSC835774), CH-223191 (NSC835775), CPI-455 (NSC825282), aza-TdCyd (NSC777586), decitabine (NSC127716), belinostat (NSC758774), entinostat (NSC756642), pevonedistat (NSC761192), tazemetostat (NSC777109), talazoparib (NSC765396), olaparib (NSC753686), selinexor (NSC780203), nedisertib (M3814, NSC802822), bortezomib (NSC756655), venetoclax (NSC766270), doxorubicin (NSC123127), elimusertib (BAY189344, NSC800525), ceralasertib (AZD6738, NSC777638), TAK-243 (NSC785004), alisertib (NSC759677), etoposide (NSC141540), topotecan (NSC609699), eribulin (NSC707389), gemcitabine (NSC613327), carboplatin (NSC241240), cisplatin (NSC119875), and SN-38 (NSC673596) were obtained from the National Cancer Institute (NCI) Developmental Therapeutics Program Chemical Repository (32). The FDA-approved anticancer drug set is available from the Developmental Therapeutics Program at https://dtp.cancer.gov/organization/dscb/obtaining/available plates.htm. […] The stock solutions were prepared in dimethyl sulfoxide (DMSO, Sigma-Aldrich, St. Louis, MO, cat. D2650), except for the platinum compounds which were prepared in saline (Quality Biological, Gaithersburg, MD, cat. 114-055-101), at 800-fold the tested concentration and stored at -70 degrees C prior to their use. All drugs and investigational agents were tested over a range starting from a high concentration at or near the clinical Cmax and decreasing in half-log increments. If the clinical Cmax for an agent had not been determined, the highest concentration tested was 10 microM (Table 1).
# Cell Culture. All cells were maintained in an incubator at 37 degrees C and 5% CO2 with 95% humidity. The PDC lines were cultured according to standard operating procedures established by the NCI PDMR (https://pdmr.cancer.gov). Briefly, all PDCs were thawed and cultured in Matrigel-coated flasks prepared with a working solution of 1X Ham's F-12 nutrient mix, without supplementation (Invitrogen, Waltham, MA, cat. 11765054), 100 U/mL penicillin-streptomycin (Invitrogen, cat. 15140122), and 2.5% Matrigel (Corning Inc., Corning, NY, cat. 354248) for the first three passages. All PDCs were cultured in complete DMEM/F-12 media containing advanced DMEM/F-12 (Invitrogen, cat. 12634028), 4.9% defined fetal bovine serum, heat inactivated (HyClone Laboratories Inc., Logan, UT, cat. SH30070.03HI), 389 ng/mL hydrocortisone (Sigma-Aldrich, cat. H4001), 9.7 ng/mL human EGF recombinant protein (Invitrogen, cat. PHG0313), 23.4 microg/mL adenine (Sigma-Aldrich, cat. A2786), 97.3 U/mL penicillin-streptomycin (Invitrogen, cat. 15140122), 1.9 mM L-glutamine (Invitrogen, cat. 25030081), and 9.7 microM Y-27632 dihydrochloride (Tocris Bioscience, Bristol, United Kingdom, cat. 1254). The PDCs were cultured in complete DMEM/F12 media without 10 microM Y-27632 dihydrochloride for at least two passages prior to the screen. The established cell lines NCI-H1341 and […] were cultured in DMEM/F-12, HEPES (Invitrogen, cat. 11330032), 5% defined fetal bovine serum (HyClone Laboratories Inc., cat. SH30070.03), ITS premix universal culture supplement [insulin (5 microg/mL), transferrin (5 microg/mL), and selenious acid (5 ng/mL)] […]
# [1] = second compound 0.1 µM, first compound 0.0316 µM
# [2] = second compound 0.1 µM, first compound 0.1 µM
# [3] = second compound 0.1 µM, first compound 0.316 µM
# [4] = second compound 0.1 µM, first compound 1 µM
# [5] = second compound 0.1 µM, first compound 3.16 µM
# [6] = second compound 0.1 µM, first compound 10 µM
# [7] = second compound 0.316 µM, first compound 0.0316 µM
# [8] = second compound 0.316 µM, first compound 0.1 µM
# [9] = second compound 0.316 µM, first compound 0.316 µM
# [10] = second compound 0.316 µM, first compound 1 µM
# [11] = second compound 0.316 µM, first compound 3.16 µM
# [12] = second compound 0.316 µM, first compound 10 µM
# [13] = second compound 1 µM, first compound 0.0316 µM
# [14] = second compound 1 µM, first compound 0.1 µM
# [15] = second compound 1 µM, first compound 0.316 µM
# [16] = second compound 1 µM, first compound 1 µM
# [17] = second compound 1 µM, first compound 3.16 µM
# [18] = second compound 1 µM, first compound 10 µM
# [19] = second compound 3.16 µM, first compound 0.0316 µM
# [20] = second compound 3.16 µM, first compound 0.1 µM
# [21] = second compound 3.16 µM, first compound 0.316 µM
# [22] = second compound 3.16 µM, first compound 1 µM
# [23] = second compound 3.16 µM, first compound 3.16 µM
# [24] = second compound 3.16 µM, first compound 10 µM
# [25] = second compound 10 µM, first compound 0.0316 µM
# [26] = second compound 10 µM, first compound 0.1 µM
# [27] = second compound 10 µM, first compound 0.316 µM
# [28] = second compound 10 µM, first compound 1 µM
# [29] = second compound 10 µM, first compound 3.16 µM
# [30] = second compound 10 µM, first compound 10 µM
# 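Wherever viability, T/C is given: percent of DMSO vehicle-treated spheroid viability set as 100%.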
compound,measurement,setting,value
CCc1c2c(nc3ccc(O)cc13)-c1cc3c(c(=O)n1C2)COC(=O)[C@]3(O)CC + CC(CO)NC(=O)c1cc(-c2ccc(Cl)cc2)nn(-c2cnn(C)c2)c1=O,IC50,second compound 0.1 µM,9.38 nM
same,IC50,second compound 0.316 µM,6.85 nM
same,IC50,second compound 1 µM,8.65 nM
same,IC50,second compound 3.16 µM,11.5 nM
same,IC50,second compound 10 µM,19.8 nM
same,"viability, T/C","second compound 0.1 µM, first compound 0.000949 µM",53.8%
same,"viability, T/C","second compound 0.1 µM, first compound 0.003 µM",58.1%
same,"viability, T/C","second compound 0.1 µM, first compound 0.00949 µM",52.2%
same,"viability, T/C","second compound 0.1 µM, first compound 0.03 µM",36.1%
same,"viability, T/C","second compound 0.1 µM, first compound 0.0949 µM",40.8%
same,"viability, T/C","second compound 0.1 µM, first compound 0.3 µM",26.7%
same,"viability, T/C","second compound 0.316 µM, first compound 0.000949 µM",70.6%
same,"viability, T/C","second compound 0.316 µM, first compound 0.003 µM",53.1%
same,"viability, T/C","second compound 0.316 µM, first compound 0.00949 µM",48.9%
same,"viability, T/C","second compound 0.316 µM, first compound 0.03 µM",38.2%
same,"viability, T/C","second compound 0.316 µM, first compound 0.0949 µM",34.6%
same,"viability, T/C","second compound 0.316 µM, first compound 0.3 µM",25%
same,"viability, T/C","second compound 1 µM, first compound 0.000949 µM",63.5%
same,"viability, T/C","second compound 1 µM, first compound 0.003 µM",56.4%
same,"viability, T/C","second compound 1 µM, first compound 0.00949 µM",51.5%
same,"viability, T/C","second compound 1 µM, first compound 0.03 µM",34.8%
same,"viability, T/C","second compound 1 µM, first compound 0.0949 µM",27.9%
same,"viability, T/C","second compound 1 µM, first compound 0.3 µM",21%
same,"viability, T/C","second compound 3.16 µM, first compound 0.000949 µM",55.8%
same,"viability, T/C","second compound 3.16 µM, first compound 0.003 µM",52.6%
same,"viability, T/C","second compound 3.16 µM, first compound 0.00949 µM",54.6%
same,"viability, T/C","second compound 3.16 µM, first compound 0.03 µM",34.6%
same,"viability, T/C","second compound 3.16 µM, first compound 0.0949 µM",26.6%
same,"viability, T/C","second compound 3.16 µM, first compound 0.3 µM",19.3%
same,"viability, T/C","second compound 10 µM, first compound 0.000949 µM",63.9%
same,"viability, T/C","second compound 10 µM, first compound 0.003 µM",54.4%
same,"viability, T/C","second compound 10 µM, first compound 0.00949 µM",57.3%
same,"viability, T/C","second compound 10 µM, first compound 0.03 µM",47%
same,"viability, T/C","second compound 10 µM, first compound 0.0949 µM",30.3%
same,"viability, T/C","second compound 10 µM, first compound 0.3 µM",19.4%
Nc1ccn(C2OC(CO)C(O)C2(F)F)c(=O)n1 (stereo not given) + CC(CO)NC(=O)c1cc(-c2ccc(Cl)cc2)nn(-c2cnn(C)c2)c1=O,IC50,second compound 0.1 µM,570 nM
same,IC50,second compound 0.316 µM,666 nM
same,IC50,second compound 1 µM,767 nM
same,IC50,second compound 3.16 µM,841 nM
same,IC50,second compound 10 µM,1170 nM
same,"viability, T/C",[1],81.9%
same,"viability, T/C",[2],90.8%
same,"viability, T/C",[3],65.8%
same,"viability, T/C",[4],35.6%
same,"viability, T/C",[5],31.8%
same,"viability, T/C",[6],28.1%
same,"viability, T/C",[7],92.2%
same,"viability, T/C",[8],92.5%
same,"viability, T/C",[9],70.7%
same,"viability, T/C",[10],38.6%
same,"viability, T/C",[11],30.7%
same,"viability, T/C",[12],27%
same,"viability, T/C",[13],90.9%
same,"viability, T/C",[14],77.4%
same,"viability, T/C",[15],69.8%
same,"viability, T/C",[16],45.3%
same,"viability, T/C",[17],26.7%
same,"viability, T/C",[18],26.4%
same,"viability, T/C",[19],77.5%
same,"viability, T/C",[20],79.8%
same,"viability, T/C",[21],72.4%
same,"viability, T/C",[22],45.6%
same,"viability, T/C",[23],30.1%
same,"viability, T/C",[24],24.8%
same,"viability, T/C",[25],82.9%
same,"viability, T/C",[26],80.5%
same,"viability, T/C",[27],81.6%
same,"viability, T/C",[28],52.3%
same,"viability, T/C",[29],36%
same,"viability, T/C",[30],33.9%
O=C(c1cc(Cc2n[nH]c(=O)c3ccccc23)ccc1F)N1CCN(C(=O)C2CC2)CC1 + CC(CO)NC(=O)c1cc(-c2ccc(Cl)cc2)nn(-c2cnn(C)c2)c1=O,IC50,second compound 0.1 µM,> 10000 nM
same,IC50,second compound 0.316 µM,> 10000 nM
same,IC50,second compound 1 µM,> 10000 nM
same,IC50,second compound 3.16 µM,> 10000 nM
same,IC50,second compound 10 µM,> 10000 nM
same,"viability, T/C",[1],92.9%
same,"viability, T/C",[2],95.3%
same,"viability, T/C",[3],89.2%
same,"viability, T/C",[4],76.7%
same,"viability, T/C",[5],66.8%
same,"viability, T/C",[6],62.2%
same,"viability, T/C",[7],108%
same,"viability, T/C",[8],99.6%
same,"viability, T/C",[9],103%
same,"viability, T/C",[10],82.3%
same,"viability, T/C",[11],73.3%
same,"viability, T/C",[12],70.4%
same,"viability, T/C",[13],99.8%
same,"viability, T/C",[14],104%
same,"viability, T/C",[15],99.2%
same,"viability, T/C",[16],72.3%
same,"viability, T/C",[17],76%
same,"viability, T/C",[18],67.9%
same,"viability, T/C",[19],90.6%
same,"viability, T/C",[20],96.7%
same,"viability, T/C",[21],83.5%
same,"viability, T/C",[22],78.3%
same,"viability, T/C",[23],63.5%
same,"viability, T/C",[24],59.2%
same,"viability, T/C",[25],74.5%
same,"viability, T/C",[26],72.7%
same,"viability, T/C",[27],74%
same,"viability, T/C",[28],71.9%
same,"viability, T/C",[29],65.8%
same,"viability, T/C",[30],69.7%

# — PubChem BioAssay AID1919009 (Molecular Pharmacology Branch, DTP, NCI, 2023)
